Peptide text beside a SMILES is read from it.
Columns and labels:
[1] = molecular target: T1, 2xSUMO2ΔN11 (di-SUMO2) (Homo sapiens, UniProt P61956); test: ITC binding to linear di-SUMO2 (2xSUMO2ΔN11); details: linear di-SUMO2
T1 construct: Each monomer in these chains is separated by RS replacing the natural GG motif; a C-terminal GG motif and a stop codon; GST (N, cleaved yes); made in house; host or cells: E. coli Rosetta 2(DE3)pLysS
Description: (§1) For expression in Escherichia coli, linear poly-SUMO chains were generated as described previously with slight modifications. After the combined PCR/ligation reaction, the 4×SUMO2-ΔN11 or 4×SUMO1-ΔN15 DNA polymers were separated from smaller polymers by agarose gel electrophoresis and individually extracted (Macherey–Nagel). These were then subjected to a second PCR with primers to create BamHI and XhoI restriction sites, a C-terminal GG motif and a stop codon. The resulting fragments coding for di-, tri- and tetra-SUMO2-ΔN11 or SUMO1-ΔN15 chains were amplified and cloned into pGEX-4T2. […] Each monomer in these chains is separated by RS replacing the natural GG motif. A similar strategy was used to design C-terminally GFP–HA2-tagged linear poly-SUMOs in the copper-inducible Ycplac22 vector for expression in S. cerevisiae. […]
(§2) The mono-SUMOs and linear poly-SUMO1 and poly-SUMO2 proteins as well as all RNF4 constructs were expressed as GST-fusion proteins from E. coli Rosetta™ 2(DE3)pLysS cells (Novagen) cultivated in LB medium with 100 μg/ml ampicillin and 30 μg/ml chloramphenicol after induction with 0.1 mM IPTG at 20°C for 12 h. […]
(§3) Binding of peptides and proteins to SUMOs was investigated by ITC using either a VP-ITC or an ITC200 (GE Healthcare). […] Protein concentrations were determined by measuring the absorption at 280 nm. […]

[2] = molecular target: T2, 1xSUMO2ΔN11 (mono-SUMO2) (Homo sapiens, UniProt P61956); test: ITC binding to mono-SUMO2 (1xSUMO2ΔN11)
T2 construct: a C-terminal GG motif and a stop codon; GST (N, cleaved yes); made in house; host or cells: E. coli Rosetta 2(DE3)pLysS
Description: as §1, §2, §3

T1 sequence (P61956 with tags, fused parts or gaps): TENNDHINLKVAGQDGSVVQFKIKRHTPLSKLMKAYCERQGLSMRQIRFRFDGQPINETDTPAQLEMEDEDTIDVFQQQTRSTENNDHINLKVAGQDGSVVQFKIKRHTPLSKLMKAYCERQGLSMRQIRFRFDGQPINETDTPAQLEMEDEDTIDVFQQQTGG
T2 sequence (P61956 12-93 limits assumed, stated change not applied): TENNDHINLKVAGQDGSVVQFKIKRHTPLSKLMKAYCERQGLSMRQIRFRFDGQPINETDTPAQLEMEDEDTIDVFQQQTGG

CC[C@H](C)[C@H](NC(=O)[C@@H](NC(=O)[C@H](CCC(=O)O)NC(=O)[C@H](CO)NC(=O)[C@H](CO)NC(=O)[C@H](CO)NC(=O)[C@H](CO)NC(=O)[C@H](CC(=O)O)NC(=O)[C@@H](NC(=O)[C@@H](NC(=O)[C@H](CC(C)C)NC(=O)[C@H](CC(=O)O)NC(=O)[C@@H](NC(=O)[C@@H](NC(=O)[C@H](CCC(=O)O)NC(=O)[C@@H](NC(=O)[C@H](CCCCN)NC(=O)[C@@H](N)CCCCN)C(C)C)C(C)C)[C@@H](C)CC)[C@@H](C)O)[C@@H](C)CC)C(C)C)C(=O)N[C@@H](CC(=O)O)C(=O)N[C@@H](CC(C)C)C(=O)N[C@H](C(=O)N[C@H](C(=O)N[C@@H](CC(=O)O)C(=O)N[C@@H](CO)C(=O)N[C@@H](CO)C(=O)O)[C@@H](C)CC)[C@@H](C)O [2xPIAS1pep, reference compound] (H-KKVEVIDLTIDSSSSEVIDLTIDSS-OH; N-terminus and C-terminus assumed)
affinity for di-SUMO2 [1]: exceeded the affinities of the RNF4-SIM2/3 peptide

CC[C@H](C)[C@H](NC(=O)[C@@H](NC(=O)[C@H](CCC(=O)O)NC(=O)[C@@H](NC(=O)[C@H](CCCCN)NC(=O)[C@@H](N)CCCCN)C(C)C)C(C)C)C(=O)N[C@@H](CC(=O)O)C(=O)N[C@@H](CC(C)C)C(=O)N[C@H](C(=O)N[C@H](C(=O)N[C@@H](CC(=O)O)C(=O)N[C@@H](CO)C(=O)N[C@@H](CO)C(=O)N[C@@H](CO)C(=O)N[C@@H](CC(=O)O)C(=O)N[C@@H](CCC(=O)O)C(=O)O)[C@@H](C)CC)[C@@H](C)O [PIAS1pep] (H-KKVEVIDLTIDSSSDE-OH; N-terminus and C-terminus assumed)
affinity for mono-SUMO2 [2]: much stronger than the binding of any RNF4-derived tandem SIM peptide

CC[C@H](C)[C@H](NC(=O)[C@H](CCC(=O)O)NC(=O)[C@H](CC(=O)O)NC(=O)CN)C(=O)N[C@H](C(=O)N[C@@H](CC(=O)O)C(=O)N[C@@H](CC(C)C)C(=O)N[C@H](C(=O)N[C@@H](CS)C(=O)N[C@@H](CCC(=O)O)C(=O)N[C@@H](CO)C(=O)N[C@@H](CC(C)C)C(=O)N[C@@H](CCC(=O)O)C(=O)N1CCC[C@H]1C(=O)N[C@H](C(=O)N[C@H](C(=O)N[C@H](C(=O)N[C@@H](CC(=O)O)C(=O)N[C@@H](CC(C)C)C(=O)N[C@H](C(=O)N[C@@H](Cc1c[nH]cn1)C(=O)N[C@@H](CC(N)=O)C(=O)N[C@@H](CC(=O)O)C(=O)N[C@@H](CO)C(=O)O)[C@@H](C)O)C(C)C)C(C)C)C(C)C)[C@@H](C)O)C(C)C [RNF4-SIM2/3pep] (H-GDEIVDLTCESLEPVVVDLTHNDS-OH; N-terminus and C-terminus assumed)
affinity for di-SUMO2 [1]: very similar to the one of the whole RNF4-SIM domain for di-SUMO2
